Source: article PMC3636379, “Intracellular accumulation of aggregated pyroglutamate amyloid beta: convergence of aging and Aβ pathology at the lysosome” (Age, 2012)

Key:
recombinant CTD = target: T1, recombinant CTD (Homo sapiens, UniProt P07339); assay: Degradation assay of internally quenched fluorescent Aβ peptides with cathepsin D; assay type: in vitro ADME; settings: 10 pmol, 5 mU recombinant CTD, 100 mM sodium acetate pH 5.0, 37 °C, fluorescence ex 485 / em 520 nm, mean ± SD, two independent experiments (n = 10)
T1 construct: purchased Sigma
Procedure: Therefore, we investigated whether the pE-modified Aβ is more resistant to lysosomal degradation. To this end, a degradation assay with the major lysosomal hydrolase CTD was performed. For this purpose, we used internally quenched fluorescent Aβ peptides. Degradation of the peptides removes the quencher and restores the fluorescent signal (Reits et al. [2003]), thus allowing analysis of degradation over time by monitoring the increase in fluorescence. […] To investigate the effect of aggregation on degradation, we used pre-aggregated Aβ1-40 and Aβ3(pE)-40 in the CTD assay. […] Upon aggregation, the overall degradation is hampered, but the observed difference between the peptides is retained.
Aβ peptides containing fluorophore and quencher were synthesized by solid phase synthesis using an Fmoc strategy at the NKI peptide facility. […] Peptides were purified by RP-HPLC and evidenced the expected molecular mass as determined by mass spectrometry.
Immediately prior to use, HFIP-treated peptide films of fluorescently labeled internally quenched Aβ were resuspended in DMSO and further diluted in PBS. […] Degradation of quenched peptides was followed by monitoring the increase in fluorescence (excitation, 485–12 nm; emission, 520 nm, Fluostar Omega) at 37 °C. Background fluorescence of peptide incubated in buffer without CTD controls was subtracted. […]

[1] = system: differentiated SK-N-SH cells; assay: Lysosomal membrane permeabilization: CTD in subcellular fractions, Western blot; assay type: cell-based; settings: 1 μM oligomers, 16 h, three experiments
Procedure: (§1) To investigate whether Aβ3(pE)-42 oligomers affect the integrity of the lysosomes, lysosomal membrane permeabilization (LMP) was analyzed in differentiated SK-N-SH cells. A distinctive sign of LMP is the translocation of soluble lysosomal components, from the lysosomal lumen to the cytosol (Boya et al. [2003]). Differentiated SK-N-SH cells were treated with Aβ oligomers and the leakage of cathepsin D (CTD), a soluble lysosomal enzyme, from the lysosomal lumen to the cytosol was analyzed after subcellular fractionation on Western blot and by immunofluorescent staining. Treatment with Aβ3(pE)-42 oligomers led to a decrease of CTD in the membrane fraction (which also contained the lysosomes) whereas the cytosolic CTD was increased. […] The result was confirmed by immunofluorescent staining of CTD. Untreated cells reveal a particulate staining pattern, indicative of its localization within lysosomes (Fig. 1b).
SK-N-SH and HeLa cells were cultured in Dulbecco’s modified Eagle’s medium with GlutaMAX (Gibco BRL, Carlsbad, CA, USA) supplemented with 10 % fetal calf serum (FCS, Gibco BRL), 100 μg/ml streptomycin, and 100 U/ml penicillin. Cell lines are routinely checked for mycoplasma contamination using a specific 16S rRNA PCR-based assay; all cells used in this study were mycoplasma free. […]

[2] = system: differentiated SK-N-SH cells; assay: Lysosomal membrane permeabilization: immunofluorescent staining of CTD; assay type: cell-based; settings: 1 μM Aβ oligomers or hydroxychloroquine, 16 h; confocal microscopy
Procedure: as §1, with “1b). […] SK-N-SH and HeLa cells were cultured in Dulbecco’s modified Eagle’s medium with GlutaMAX (Gibco BRL, Carlsbad, CA, USA) supplemented with 10 % fetal calf serum (FCS, Gibco BRL), 100 μg/ml streptomycin, and 100 U/ml penicillin. Cell lines are routinely checked for mycoplasma contamination using a specific 16S rRNA PCR-based assay; all cells used in this study were mycoplasma free. […]” for “1b).”

T1 sequence (P07339 65-412): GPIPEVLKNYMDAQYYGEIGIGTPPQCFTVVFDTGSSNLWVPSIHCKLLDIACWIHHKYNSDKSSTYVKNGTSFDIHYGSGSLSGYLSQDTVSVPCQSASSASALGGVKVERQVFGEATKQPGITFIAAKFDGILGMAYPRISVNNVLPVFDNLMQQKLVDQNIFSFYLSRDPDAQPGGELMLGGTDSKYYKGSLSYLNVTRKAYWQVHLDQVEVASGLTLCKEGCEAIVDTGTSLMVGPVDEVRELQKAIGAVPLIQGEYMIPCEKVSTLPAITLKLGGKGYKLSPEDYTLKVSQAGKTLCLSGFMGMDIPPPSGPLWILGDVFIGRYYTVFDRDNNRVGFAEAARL

Row | Substance | time to reach the half-max fluorescence of degradation (t 1/2) (recombinant CTD; not pre-aggregated, internally quenched fluorescent peptide (Oregon green 488 at aa 22, dabcyl at aa 12)) | time to reach the half-max fluorescence of degradation (t 1/2) (recombinant CTD; pre-aggregated peptide, internally quenched fluorescent peptide) | CTD in the membrane fraction (containing the lysosomes) [1] | cytosolic CTD [1] | CTD staining pattern (release from lysosomes to cytoplasm) [2]
1 | Aβ1-40: internally quenched fluorescent Aβ peptide, Oregon green 488 at amino acid 22 and dabcyl at amino acid 12; pre-aggregated or not | 48.9 ± 4.3 min | 63.6 ± 10.0 min | – | – | –
2 | Aβ1-42: synthetic amyloid beta 1-42 purchased from Anaspec, used as oligomers | – | – | did not change | did not change | same pattern but to a lesser extent
